Key:
cells = settings: Homo sapiens, MCF-10A, read-out: MCF10A IC50
H1047R PIK3CA enzyme = H1047R PIK3CA enzyme (Homo sapiens, UniProt P42336, H1047R); assay: ADP-Glo Biochemical PIK3CA Kinase Assay
Chain of H1047R PIK3CA enzyme (P42336 whole entry H1047R): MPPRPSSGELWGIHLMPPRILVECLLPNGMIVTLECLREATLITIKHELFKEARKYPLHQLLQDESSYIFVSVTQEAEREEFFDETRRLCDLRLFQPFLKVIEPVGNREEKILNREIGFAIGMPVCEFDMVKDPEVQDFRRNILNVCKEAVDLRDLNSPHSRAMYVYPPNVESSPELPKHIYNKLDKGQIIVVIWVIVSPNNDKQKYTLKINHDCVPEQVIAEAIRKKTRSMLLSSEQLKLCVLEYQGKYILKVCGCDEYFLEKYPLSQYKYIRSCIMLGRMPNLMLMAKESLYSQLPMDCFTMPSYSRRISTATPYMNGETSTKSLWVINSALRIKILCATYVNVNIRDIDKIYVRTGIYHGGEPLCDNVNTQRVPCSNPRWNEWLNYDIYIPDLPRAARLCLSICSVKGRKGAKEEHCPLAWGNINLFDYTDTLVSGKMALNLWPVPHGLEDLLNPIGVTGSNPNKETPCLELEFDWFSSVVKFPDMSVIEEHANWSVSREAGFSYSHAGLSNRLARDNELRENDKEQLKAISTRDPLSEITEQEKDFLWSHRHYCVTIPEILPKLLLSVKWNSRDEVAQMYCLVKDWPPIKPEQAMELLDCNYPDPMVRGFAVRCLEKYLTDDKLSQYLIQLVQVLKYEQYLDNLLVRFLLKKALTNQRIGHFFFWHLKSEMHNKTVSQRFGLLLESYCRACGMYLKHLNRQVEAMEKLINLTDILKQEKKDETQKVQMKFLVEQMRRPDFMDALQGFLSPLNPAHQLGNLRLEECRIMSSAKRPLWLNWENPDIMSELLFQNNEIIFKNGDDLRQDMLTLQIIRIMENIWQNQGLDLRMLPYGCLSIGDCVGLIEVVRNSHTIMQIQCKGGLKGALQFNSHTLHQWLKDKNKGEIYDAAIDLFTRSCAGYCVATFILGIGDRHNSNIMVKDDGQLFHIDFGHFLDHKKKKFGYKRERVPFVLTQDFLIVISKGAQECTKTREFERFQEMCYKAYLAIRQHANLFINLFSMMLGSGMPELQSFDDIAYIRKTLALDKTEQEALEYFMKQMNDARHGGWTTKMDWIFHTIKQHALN
Chain of H1047R PIK3CA enzyme (P27986 whole entry partner): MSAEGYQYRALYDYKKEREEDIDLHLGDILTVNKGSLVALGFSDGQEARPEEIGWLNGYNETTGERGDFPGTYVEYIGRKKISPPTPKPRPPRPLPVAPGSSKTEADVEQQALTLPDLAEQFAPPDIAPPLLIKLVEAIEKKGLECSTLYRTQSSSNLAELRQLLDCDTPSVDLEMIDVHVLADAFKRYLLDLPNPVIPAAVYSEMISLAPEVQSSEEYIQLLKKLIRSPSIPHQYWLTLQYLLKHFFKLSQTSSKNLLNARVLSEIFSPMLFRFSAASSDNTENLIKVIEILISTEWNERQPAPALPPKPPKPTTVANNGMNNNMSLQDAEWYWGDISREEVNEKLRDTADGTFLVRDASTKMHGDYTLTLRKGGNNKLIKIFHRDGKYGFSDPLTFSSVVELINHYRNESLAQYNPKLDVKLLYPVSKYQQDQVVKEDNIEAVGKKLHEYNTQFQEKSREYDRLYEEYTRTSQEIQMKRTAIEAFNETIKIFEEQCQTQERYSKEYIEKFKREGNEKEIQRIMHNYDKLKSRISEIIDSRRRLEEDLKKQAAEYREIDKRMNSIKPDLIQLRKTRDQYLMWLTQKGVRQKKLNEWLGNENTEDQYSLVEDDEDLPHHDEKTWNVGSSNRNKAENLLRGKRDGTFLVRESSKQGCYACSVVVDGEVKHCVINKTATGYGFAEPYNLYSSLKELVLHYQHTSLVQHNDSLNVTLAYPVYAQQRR

SMILES	IC50 (cells) [nM]	IC50 (H1047R PIK3CA enzyme) [nM]
O=C(Nc1cc(-c2ccc3ncnn3c2)cc2c1[C@@H](c1cc(F)c(F)cc1Cl)NC2=O)c1cc(F)cc(C(F)(F)F)c1 [Compound I-1061]	< 1000	≤ 100
O=C(Nc1cc(-c2ccc3ncnn3c2)cc2c1[C@H](c1cc(F)ccc1C(F)F)NC2=O)c1cc(F)cc(C(F)(F)F)c1 (stereo in doubt) [Compound I-1056]	< 1000	≤ 100
Cc1ccccc1[C@@H]1NC(=O)c2cc(N)cc(NC(=O)c3nsc4ccccc34)c21 [Compound I-92]	< 1000	≤ 100
O=C(Nc1cc(-c2ccc3nccn3n2)cc2c1C(c1cc(F)ccc1Cl)NC2=O)c1cc(F)cc(C(F)(F)F)c1 (centres unmarked) [Compound I-905]	< 1000	≤ 100
O=C(Nc1cc(-c2cscn2)cc2c1[C@H](c1cc(F)ccc1Cl)NC2=O)c1cc(F)cc(C(F)(F)F)c1 [Compound I-1084]	< 1000	≤ 100
COc1nc(-c2cc(NC(=O)c3cc(F)cc(C(F)(F)F)c3)c3c(c2)C(=O)NC3c2cc(F)ccc2Cl)cs1 (centres unmarked) [Compound I-1066]	1000 to 5000	≤ 100
O=C1N[C@@H](c2cc(F)ccc2Cl)c2c(NC(=O)N3C[C@](O)(C(F)(F)F)c4cc(F)ccc43)cc(Cl)nc21 (single isomer, unassigned) [Compound I-2704]	< 1000	≤ 100
O=C(Nc1cc(-c2ccnc3[nH]ccc23)cc2c1C(c1cc(F)ccc1Cl)NC2=O)c1cc(F)cc(C(F)(F)F)c1 (centres unmarked) [Compound I-1049]	< 1000	≤ 100
N#CCOc1cc(NC(=O)c2cc(F)cc(C(F)(F)F)c2)c2c(c1)C(=O)NC2c1cc(F)ccc1Cl (centres unmarked) [Compound I-1160]	< 1000	≤ 100
CC(C)(O)c1cc(NC(=O)N2C[C@@H](O)c3ccccc32)c2c(c1)C(=O)N[C@H]2c1cc(F)ccc1Cl (single isomer, unassigned) [Compound I-2124]	1000 to 5000	≤ 100
CSCc1cc(NC(=O)c2cc(F)cc(C(F)(F)F)c2)c2c(c1)C(=O)NC2c1cc(F)ccc1Cl (centres unmarked) [Compound I-914]	< 1000	≤ 100
O=C1N[C@H](c2cc(F)ccc2Cl)c2c(NC(=O)N3C[C@@](O)(C(F)(F)F)c4cc(F)ccc43)cc(-n3ccnn3)cc21 (single isomer, unassigned) [Compound I-2547]	< 1000	≤ 100
Cn1cccc(-c2cc(NC(=O)c3cc(F)cc(C(F)(F)F)c3)c3c(c2)C(=O)NC3c2cc(F)ccc2Cl)c1=O (centres unmarked) [Compound I-901]	1000 to 5000	100 to 500
CNC(=O)c1cc(NC(=O)c2csc3ccccc23)c2c(c1)C(=O)N[C@H]2c1ccccc1C [Compound I-76, (S)-7-(Benzo[b]thiophene-3-carboxamido)-N-methyl-3-oxo-1-(o-tolyl)isoindoline-5-carboxamide]	< 1000	≤ 100
O=C1N[C@@H](c2cc(F)ccc2Cl)c2c(NC(=O)N3C[C@](O)(C(F)(F)F)c4cc(F)ccc43)cc(F)cc21 (single isomer, unassigned) [Compound I-2630]	< 1000	1000 to 10000
Nc1cc(NC(=O)c2cc(F)cc(C(F)(F)F)c2)c2c(c1)C(=O)N[C@H]2c1cc(F)ccc1Cl [Compound I-218]	< 1000	≤ 100
N#CC1(C(=O)Nc2cc(NC(=O)c3cc(F)cc(C(F)(F)F)c3)c3c(c2)C(=O)NC3c2cc(F)ccc2Cl)CNC1 (centres unmarked) [Compound I-2149]	10000 to 36000	≤ 100
CC(C)(CN)n1cc(-c2cc(NC(=O)N3C[C@@](O)(C(F)(F)F)c4cc(F)ccc43)c3c(c2)C(=O)N[C@@H]3c2cc(F)ccc2Cl)cn1 (single isomer, unassigned) [Compound I-2649]	1000 to 5000	≤ 100
Cc1nc2ncc(-c3cc(NC(=O)c4cc(F)cc(C(F)(F)F)c4)c4c(c3)C(=O)NC4c3cc(F)ccc3Cl)cn2n1 (centres unmarked) [Compound I-1124]	< 1000	≤ 100

SMILES	IC50 (cells) [nM]	IC50 (H1047R PIK3CA enzyme) [nM]
Cn1nc(-c2cc(NC(=O)c3cc(F)cc(C(F)(F)F)c3)c3c(c2)C(=O)NC3c2cc(F)ccc2Cl)ccc1=O (centres unmarked) [Compound I-1076]	< 1000	≤ 100
Cc1ccccc1C1NC(=O)c2cccc(NC(=O)c3csc4ccc(F)cc34)c21 (centres unmarked) [Compound I-26]	1000 to 5000	100 to 500
CC(C)(O)c1cc(NC(=O)c2nsc3ccccc23)c2c(c1)C(=O)N[C@H]2c1cc(F)ccc1Cl [Compound I-192]	< 1000	≤ 100
Cc1cc2cnn(C)c2cc1-c1cc(NC(=O)c2cc(F)cc(C(F)(F)F)c2)c2c(c1)C(=O)NC2c1cc(F)ccc1Cl (centres unmarked) [Compound I-933]	5000 to 10000	100 to 500
Cc1nc2ccc(-c3cc(NC(=O)c4cc(F)cc(C(F)(F)F)c4)c4c(c3)C(=O)NC4c3cc(F)ccc3Cl)cc2o1 (centres unmarked) [Compound I-984]	< 1000	≤ 100
Cc1ccccc1C1NC(=O)c2cc(C(=O)NCC(F)F)cc(NC(=O)c3nsc4ccccc34)c21 (centres unmarked) [Compound I-121]	< 1000	≤ 100
O=C1N[C@H](c2cc(F)ccc2Cl)c2c(NC(=O)N3C[C@](O)(C(F)(F)F)c4cc(F)ccc43)ccc(Cl)c21 (single isomer, unassigned) [Compound I-2618]	< 1000	≤ 100
Nc1cc(NC(=O)N2C[C@@H](O)c3cc(F)ccc32)c2c(c1)C(=O)N[C@H]2c1cc(F)ccc1Cl (single isomer, unassigned) [Compound I-2411]	10000 to 36000	≤ 100
O=C(Nc1cc(-c2cn[nH]c2)cc2c1C(c1cc(F)ccc1Cl)NC2=O)c1cc(F)cc(C(F)(F)F)c1 (centres unmarked) [Compound I-878]	< 1000	≤ 100
O=C(Nc1cc(Nc2ncc[nH]2)cc2c1C(c1cc(F)ccc1Cl)NC2=O)c1cc(F)cc(C(F)(F)F)c1 (centres unmarked) [Compound I-999]	1000 to 5000	≤ 100
NCc1cc(NC(=O)N2CC(O)(C(F)(F)F)c3cc(F)ccc32)c2c(c1)C(=O)NC2c1cc(F)ccc1Cl (centres unmarked) [Compound I-2568]	10000 to 36000	≤ 100
O=C(Nc1cc(I)cc2c1C(c1cc(F)ccc1Cl)NC2=O)c1cc(F)cc(C(F)(F)F)c1 (centres unmarked) [Compound I-913]	< 1000	≤ 100
O=C(Nc1cc(NC2=N[C@H](C(F)(F)F)CO2)cc2c1[C@H](c1cc(F)ccc1Cl)NC2=O)c1cc(F)cc(C(F)(F)F)c1 (single isomer, unassigned) [Compound I-2387]	1000 to 5000	≤ 100
O=C1NC(c2cc(F)ccc2Cl)c2c(NC(=O)c3cc(F)cc4c(Cl)c[nH]c34)cccc21 (centres unmarked) [Compound I-1161]	1000 to 5000	100 to 500
O=C(Nc1cc(-c2cnc3nccn3c2)cc2c1[C@H](c1cc(F)ccc1Cl)NC2=O)c1cc(F)cc(C(F)(F)F)c1 [Compound I-884]	< 1000	≤ 100
O=C(Nc1cc(-c2cc3cccnc3[nH]2)cc2c1C(c1cc(F)ccc1Cl)NC2=O)c1cc(F)cc(C(F)(F)F)c1 (centres unmarked) [Compound I-972]	< 1000	≤ 100
COc1ccc(NC(=O)c2csc3ccccc23)c2c1C(=O)NC2c1ccccc1C (centres unmarked) [Compound I-35]	1000 to 5000	≤ 100
O=C1N[C@H](c2cc(F)ccc2Cl)c2c(NC(=O)N3C[C@@](O)(C(F)(F)F)c4cc(F)ccc43)ccnc21 (single isomer, unassigned) [Compound I-2698]	1000 to 5000	≤ 100

Source: patent US12581252B2, “Substituted pyrrolo[3,4-b]pyridines as PI3K-α inhibitors” (Relay Therapeutics, Inc., priority 2020, dated 2026)
